According to ChEMBL document CHEMBL5346936, “Functionalized sulfonyl anthranilic acid derivatives inhibit replication of all the four dengue serotypes” (Eur J Med Chem, 2023):
Calls of active or inactive are those of the source. The rule behind the calls is not given here.

Assays:
dengue virus type 2 [1] = assay: Antiviral activity against DENV-2 EDEN 3295 infected in 10^5 human Huh-7 cells at 0.3 MOI for 1 hr followed by compound treatment at 10 uM for 48 hrs relative to control; type: functional
dengue virus type 2 [2] = assay: Antiviral activity against DENV-2 EDEN 3295 infected in 10^5 human Huh-7 cells at 0.3 MOI for 1 hr followed by compound treatment for 48 hrs; type: functional, organism-based; settings: EDEN 3295, Huh-7
[3] = Cytotoxicity against human Huh-7 cells treated for 48 hrs measured by celltitre-glo luminescent assay; type: toxicity, cell-based
[4] = Selectivity index, ratio of CC50 for human Huh-7 cells to EC50 for antiviral activity against DENV-2 EDEN 3295; type: toxicity; settings: read-out: Ratio CC50/EC50
dengue virus type 2 [5] = assay: Inhibition of DENV-2 NS5 polymerase incubated for 1 hr measured at 30 uM by fluorescence based alkaline phosphate coupled polymerase assay
[6] = Cytotoxicity against human A549 cells; type: toxicity, cell-based
dengue virus type 2 [7] = assay: Antiviral activity against DENV-2 infected with human Calu-1 cells; type: functional, organism-based
dengue virus type 2 [8] = assay: Antiviral activity against DENV-2 infected in human Huh-7 cells assessed as reduction of viral protein NS3 expression at 10 uM for 12 hrs post infection by RT-PCR analysis; type: functional, organism-based
dengue virus type 2 [9] = assay: Antiviral activity against DENV-2 infected with asian tiger mosquito C6/36 cells; type: functional, organism-based
[10] = Cytotoxicity against hamster BHK-21 cells; type: toxicity, cell-based, Mesocricetus auratus
dengue virus type 2 [11] = assay: Antiviral activity against DENV-2 infected in human Huh-7 cells at MOI 1 assessed as log reduction of intracellular viral titre at 10 uM measured after 60 hrs post infection by RT-PCR analysis; type: functional
dengue virus type 2 [12] = assay: Antiviral activity against DENV-2 infected with human A549 cells; type: functional, organism-based
[13] = Cytotoxicity against human Calu-1 cells; type: toxicity, cell-based
dengue virus type 2 [14] = assay: (§1) Inhibition of DENV-2 NS5 polymerase incubated for 1 hr measured by fluorescence based alkaline phosphate coupled polymerase assay
dengue virus type 2 [15] = assay: Antiviral activity against DENV-2 infected in human Huh-7 cells assessed as reduction of viral protein NS5 expression at 10 uM for 12 hrs post infection by RT-PCR analysis; type: functional, organism-based
[16] = Cytotoxicity against green monkey Vero cells; type: toxicity, cell-based; settings: chlorocebus sabaeus
dengue virus type 2 [17] = assay: Antiviral activity against DENV-2 infected in human Huh-7 cells at MOI 1 assessed as reduction of intracellular viral titre at 10 uM, 2 hr prior to infection measured after 48 hrs measured by RT-PCR analysis; type: functional, organism-based; settings: time 50.0 hrs
dengue virus type 2 [18] = assay: Antiviral activity against DENV-2 infected in human Huh-7 cells at MOI 1 assessed as reduction of intracellular viral titre at 10 uM measured after 24 hrs post infection by RT-PCR analysis; type: functional, organism-based
dengue virus type 2 [19] = assay: Antiviral activity against DENV-2 infected in human Huh-7 cells at MOI 1 assessed as reduction of intracellular viral titre at 10 uM measured after 2 hrs post infection by RT-PCR analysis; type: functional, organism-based
dengue virus type 2 [20] = assay: Antiviral activity against DENV-2 infected with hamster BHK-21 cells; type: functional, organism-based
[21] = Cytotoxicity against asian tiger mosquito C6/36 cells; type: toxicity, cell-based; settings: aedes albopictus
[22] = Cytotoxicity against human Huh-7 cells; type: toxicity, cell-based
dengue virus type 2 [23] = assay: Antiviral activity against DENV-2 infected in human Huh-7 cells at MOI 1 assessed as reduction of intracellular viral titre at 10 uM during infection measured after 48 hrs measured by RT-PCR analysis; type: functional, organism-based
dengue virus type 2 [24] = assay: Antiviral activity against DENV-2 infected with green monkey Vero cells; type: functional, organism-based
[25] = as §1; design: species or system dengue virus type 2

SMILES | Activity (dengue virus type 2 [1]) | EC50 (dengue virus type 2 [2]) | CC50 at 48 h [3] | selectivity ratio [4] | further results
O=C(NCc1ccccc1)c1cc(Oc2cccc(Br)c2)ccc1NS(=O)(=O)c1cccnc1 | 12.5% | – | – | – | –
O=C(NCc1ccccc1)c1cc(Oc2cccc(Br)c2)ccc1NS(=O)(=O)c1ccc(F)c(F)c1 | – | 12.5 µM | 44.5 µM | 3.56 | –
O=C(Nc1ccccc1)c1cc(Oc2cccc(Br)c2)ccc1NS(=O)(=O)c1cccc2cccnc12 | – | 4.4 µM | 64.7 µM | 14.7 | –
CCc1cccc(Oc2ccc(NS(C)(=O)=O)c(C(=O)NCc3ccc(F)c(F)c3)c2)c1 | – | 33.9 µM | 41.1 µM | 1.21 | inhibition (dengue virus type 2 [5]): inactive
COc1ccc(CNC(=O)c2cc(Oc3cccc(Br)c3)ccc2NS(=O)(=O)c2cccc3cccnc23)cc1OC | 50% | – | – | – | –
O=C(NCc1ccccc1)c1ccccc1NS(=O)(=O)c1cccc2cccnc12 | 0% | – | – | – | –
O=C(NCc1ccccc1)c1cc(Oc2cccc(Br)c2)ccc1NS(=O)(=O)N1CCOCC1 | 0% | – | – | – | –
O=C(NCc1ccccc1)c1cc(Oc2cccc(Br)c2)ccc1NS(=O)(=O)c1ccc2c(c1)CCO2 | 32.5% | – | – | – | –
CCCOc1ccc(NS(=O)(=O)c2cccc3cccnc23)c(C(=O)NC(CC)CC)c1 | – | 2.2 µM | > 100 µM | > 45 | –
O=C(NCc1ccccc1)c1cc(Oc2cccc(Br)c2)ccc1NS(=O)(=O)c1cccs1 | 0% | – | – | – | –
CCCOc1ccc(NC(=O)c2cccc3cccnc23)c(C(=O)NCc2ccccc2)c1 | – | 5.6 µM | > 100 µM | > 17 | –
O=C(NCc1ccccc1)c1cc(F)ccc1NS(=O)(=O)c1cccc2cccnc12 | 0% | – | – | – | –
CCc1cccc(Oc2ccc(NS(C)(=O)=O)c(C(=O)NCc3ccccc3)c2)c1 | – | 44.9 µM | 78.6 µM | 1.75 | inhibition (dengue virus type 2 [5]): inactive
O=C(NCc1ccccc1)c1cc(Oc2cccc(Br)c2)ccc1NS(=O)(=O)c1cccc2cccnc12 | – | 7.3 µM | > 100 µM | > 13.6 | –
CCCOc1ccc(NS(=O)(=O)c2cccc3cccnc23)c(C(=O)N2CCc3ccccc3C2)c1 | – | 6.1 µM | > 100 µM | > 16.4 | –
CCc1cccc(Oc2ccc(NS(=O)(=O)c3cccc4cccnc34)c(C(=O)NCc3ccccc3)c2)c1 | – | 3 µM | > 100 µM | > 32.8 | –
CCCOc1ccc(NS(=O)(=O)c2cccc3cccnc23)c(C(=O)NC2CC2)c1 | – | 8.7 µM | > 100 µM | > 11 | –
CCc1cccc(Oc2ccc(NS(C)(=O)=O)c(C(=O)N[C@H](C)c3ccccc3)c2)c1 | – | 17.9 µM | 51.1 µM | 2.85 | inhibition (dengue virus type 2 [5]): inactive
CCCOc1ccc(NS(=O)(=O)c2cccc3cccnc23)c(C(=O)NCCN2CCCCC2)c1 | 20% | – | – | – | –
CCCOc1ccc(NS(=O)(=O)c2cccc3cccnc23)c(C(=O)NCCCc2ccccc2)c1 | – | 3.9 µM | > 100 µM | > 25.6 | –

SMILES | Activity (dengue virus type 2 [1]) | EC50 (dengue virus type 2 [2]) | CC50 at 48 h [3] | selectivity ratio [4] | further results
COc1ccc(CNC(=O)c2cc(Oc3cccc(Br)c3)ccc2NS(C)(=O)=O)cc1OC | – | 48.8 µM | 100 µM | 2.05 | inhibition (dengue virus type 2 [5]): inactive
CCCOc1ccc(NS(=O)(=O)c2cccc3cccnc23)c(C(=O)NCc2ccccc2)c1 | – | – | > 100 µM | – | CC50 [6]: > 100 µM; EC50 (dengue virus type 2 [7]): 0.18 µM; Activity (dengue virus type 2 [8]): Active; EC50 (dengue virus type 2 [9]): > 10 µM; CC50 [10]: > 25 µM; log(activity) (dengue virus type 2 [11]): 3; EC50 (dengue virus type 2 [12]): 1.38 µM; CC50 [13]: > 100 µM; inhibition (dengue virus type 2 [14]): inactive; Activity (dengue virus type 2 [15]): Active; CC50 [16]: > 25 µM; Activity (dengue virus type 2 [17]): inactive; Activity (dengue virus type 2 [18]): Active; Activity (dengue virus type 2 [19]): Active; EC50 (dengue virus type 2 [20]): 20 µM; CC50 [21]: > 100 µM; CC50 [22]: > 100 µM; Activity (dengue virus type 2 [23]): inactive; EC50 (dengue virus type 2 [24]): 1.09 µM
O=C(NCc1ccccc1)c1cc(OCC2CCCCC2)ccc1NS(=O)(=O)c1cccc2cccnc12 | 45% | – | – | – | –
C#C[C@@]1(O)[C@H](O)[C@@H](CO)O[C@H]1n1ccc2c(N)ncnc21 | – | 0.23 µM | – | 434 | –
CCCOc1ccc(NS(=O)(=O)c2cccc3cccnc23)c(C(=O)N(CC)Cc2ccccc2)c1 | 25% | – | – | – | –
CCCOc1ccc(NS(=O)(=O)c2cccc3cccnc23)c(C(=O)NCCc2ccccc2)c1 | – | 2.2 µM | > 100 µM | > 45.5 | –
O=C(NCc1ccccc1)c1cc(Oc2ccccc2)ccc1NS(=O)(=O)c1cccc2cccnc12 | – | 3.9 µM | > 100 µM | > 25.4 | –
COc1ccc(NS(=O)(=O)c2cccc3cccnc23)c(C(=O)NCc2ccccc2)c1 | – | 4.8 µM | > 100 µM | > 20.8 | –
CS(=O)(=O)Nc1ccc(Oc2cccc(Br)c2)cc1C(=O)NCc1ccc(F)c(F)c1 | – | 42.6 µM | 40.3 µM | – | inhibition (dengue virus type 2 [5]): inactive
CCCOc1ccc(NS(=O)(=O)c2cccc3cccnc23)c(C(=O)NC2CCCc3ccccc32)c1 (stereo not drawn) | – | 1.9 µM | > 100 µM | > 52.6 | –
COc1ccc(C(=O)NCc2ccccc2)c(NS(=O)(=O)c2cccc3cccnc23)c1 | 0% | – | – | – | –
CCCOc1cc(C(=O)NCc2ccccc2)ccc1NS(=O)(=O)c1cccc2cccnc12 | 0% | – | – | – | –
O=C(OC1=CS(=O)(=O)Nc2ccc(Oc3ccccc3Br)cc21)c1ccc(F)c(F)c1 | – | – | – | – | IC50 [25]: 18.4 µM
CS(=O)(=O)Nc1ccc(Oc2cccc(Br)c2)cc1C(=O)NCc1ccccc1 | – | 47.5 µM | 66.4 µM | 1.39 | inhibition (dengue virus type 2 [5]): inactive
CCc1cccc(Oc2ccc(NS(=O)(=O)c3cccc4cccnc34)c(C(=O)NCc3ccc4c(c3)OCO4)c2)c1 | – | 5.9 µM | > 100 µM | > 16.9 | –
CCCOc1ccc(NS(=O)(=O)c2cccc3ccccc23)c(C(=O)NCc2ccccc2)c1 | 0% | – | – | – | –
NC(=O)c1cc(Oc2cccc(Br)c2)ccc1NS(=O)(=O)c1cccc2cccnc12 | 27.5% | – | – | – | –
O=C(NCc1ccc(F)c(F)c1)c1cc(Oc2cccc(Br)c2)ccc1NS(=O)(=O)c1cccc2cccnc12 | – | 5.6 µM | > 100 µM | > 17.8 | –
CCCOc1ccc(NS(=O)(=O)c2cccc3cccnc23)c(C(=O)NC2CCC2)c1 | – | 2.5 µM | > 100 µM | > 40 | –
